Experiments:
Staphylococcus aureus [1] = test: Antibacterial activity against Staphylococcus aureus CCM 451608 assessed as reduction in bacterial growth inhibition incubated for 24 hrs by microbroth dilution method; type: functional
Staphylococcus aureus [2] = test: Antibacterial activity against Staphylococcus aureus CCM 451608 assessed as reduction in bacterial growth inhibition incubated for 48 hrs by microbroth dilution method; type: functional
Enterococcus faecalis [3] = test: Antibacterial activity against Enterococcus faecalis assessed as bacterial growth inhibition incubated for 72 hrs by microdilution method; type: functional
Staphylococcus aureus [4] = test: Antibacterial activity against Staphylococcus aureus assessed as bacterial growth inhibition incubated for 72 hrs by microdilution assay; type: functional, organism-based; conditions: for MIC: Staphylococcus aureus, time 72 hrs
Pseudomonas aeruginosa [5] = test: Antibacterial activity against Pseudomonas aeruginosa assessed as bacterial growth inhibition incubated for 72 hrs by microdilution method; type: functional
Escherichia coli [6] = test: Antibacterial activity against Escherichia coli assessed as bacterial growth inhibition incubated for 72 hrs by microdilution method; type: functional
Staphylococcus aureus [7] = test: Antibiofilm activity against methicillin-resistant Staphylococcus aureus assessed as inhibition of biofilm formation; type: functional
Bacillus cereus = test: Antibacterial activity against Bacillus cereus assessed as reduction in microbial growth after 18 hrs by MTT based broth dilution method; type: functional
Staphylococcus aureus [8] = test: Antibacterial activity against methicillin- resistant Staphylococcus aureus assessed as bacterial growth inhibition incubated for 24 hrs; type: functional
Staphylococcus aureus [9] = test: Antibacterial activity against methicillin-resistant Staphylococcus aureus assessed as bacterial growth inhibition; type: functional
[10] = test system: Mycobacterium tuberculosis; test: Antimycobacterial activity against Mycobacterium tuberculosis assessed as reduction in mycobacterial growth; type: functional
[11] = test system: Mycobacterium tuberculosis; test: Antibacterial activity against Mycobacterium tuberculosis Erdman assessed as bacterial growth inhibition; type: functional
Staphylococcus aureus [12] = test: Antibacterial activity against Staphylococcus aureus assessed as bacterial growth inhibition measured after 24 hrs by micro-broth dilution method; type: functional
Pseudomonas aeruginosa [13] = test: Antibacterial activity against Pseudomonas aeruginosa assessed as inhibition of bacterial cell growth; type: functional
Staphylococcus aureus [14] = test: Antimicrobial activity against Staphylococcus aureus assessed as reduction in bacterial growth; type: functional
Escherichia coli [15] = test: Antibacterial activity against Escherichia coli assessed as reduction bacterial cell growth; type: functional
Enterococcus faecalis [16] = test: Antibacterial activity against Enterococcus faecalis assessed as reduction in bacterial cell growth; type: functional
[17] = test system: Stenotrophomonas maltophilia; test: Antibacterial activity against Stenotrophomonas maltophilia assessed as inhibition of bacterial growth; type: functional
Staphylococcus aureus [18] = test: Antibacterial activity against Staphylococcus aureus ATCC 29213 assessed as bacterial growth inhibition incubated for 24 hrs by broth dilution method; type: functional
Staphylococcus aureus [19] = test: Antibacterial activity against Staphylococcus aureus assessed as bacterial growth inhibition; type: functional
Enterococcus faecium = test: Antibacterial activity against vancomycin-resistant Enterococcus faecium 700221 assessed as reduction in bacterial growth inhibition measured after 16 hrs by microplate reader assay; type: functional
Staphylococcus aureus [20] = test: Antibacterial activity against methicillin-resistant Staphylococcus aureus assessed as bacterial growth inhibition measured after 16 hrs by microplate reader assay; type: functional
[21] = test system: Staphylococcus epidermidis; test: Antibacterial activity against methicillin-resistant Staphylococcus epidermidis assessed as bacterial growth inhibition measured after 16 hrs by microplate reader assay; type: functional
Klebsiella pneumoniae = test: Antibacterial activity against Klebsiella pneumoniae assessed as reduction in bacterial growth; type: functional
Pseudomonas aeruginosa [22] = test: Antibacterial activity against Pseudomonas aeruginosa assessed as reduction in bacterial cell growth; type: functional
Acinetobacter baumannii = test: Antibacterial activity against Acinetobacter baumannii assessed as inhibition of bacterial cell growth; type: functional
[23] = Pseudomonas aeruginosa, 72 h, read-out: MIC
[24] = Escherichia coli, 72 h, read-out: MIC

With `CCCCCCCCCCCCCCCC[n+]1ccc(C=NO)cc1` the MIC (Staphylococcus aureus [1]) was 0.98 µM and the MIC (Staphylococcus aureus [2]) was 0.98 µM.

With `CCCCCCCCCCCC[N+](C)(C)CC[N+](C)(C)CCCCCCCCCCCC` the MIC (Enterococcus faecalis [3]) was 1 µM, the MIC (Staphylococcus aureus [4]) was 1 µM and the MIC (Pseudomonas aeruginosa [5]; [23]) was 4 µM. The MIC (Escherichia coli [6]; [24]) was 2 µM.

Work on `CCCCCCCCCCCC[N+](C)(C)CCCCC[N+](C)(C)CCCCCCCCCCCC` yielded an MIC (Enterococcus faecalis [3]) of 1 µM, an MIC (Staphylococcus aureus [4]) of 1 µM and an MIC (Pseudomonas aeruginosa [5]; [23]) of 4 µM. The MIC (Escherichia coli [6]; [24]) was 1 µM.

`CCCCCCCCCCCC[N+](C)(C)CCN(C)CC[N+](C)(C)CCCCCCCCCCCC` gave an MIC (Enterococcus faecalis [3]) of 2 µM, an MIC (Staphylococcus aureus [4]) of 1 µM and an MIC (Staphylococcus aureus [7]) of 1 µM. The MIC (Pseudomonas aeruginosa [5]; [23]) was 4 µM and the MIC (Escherichia coli [6]; [24]) was 1 µM.

Compound `CCCCCCCCCCCC[N+](C)(C)CCC[N+](C)(C)CCCCCCCCCCCC` has an MIC (Enterococcus faecalis [3]) of 1 µM, an MIC (Staphylococcus aureus [4]) of 2 µM and an MIC (Pseudomonas aeruginosa [5]; [23]) of 4 µM. It also gave an MIC (Escherichia coli [6]; [24]) of 1 µM.

`CCCCCCCC[N+](C)(C)CC(=O)Nc1ccc(C(=O)/C=C/c2ccccc2F)cc1` was tested, and the MIC (Bacillus cereus) was 2 µM.

For `CCCCCCCCCCCC[N+](C)(C)CCCN(C)C`, the MIC (Staphylococcus aureus [8]) was 4 µM and the MIC (Staphylococcus aureus [9]) was 8 µM.

With `CCCCCCc1ccc[n+](CCOC2C3CC4CC(C3)CC2C4)c1.CS(=O)(=O)[O-]` (stereo unspecified) the MIC [10] was 3.1 µg/mL and the MIC [11] was 1.6 µg/mL.

`O=C(C[n+]1cc(-c2ccc(Cl)c(Cl)c2)n2c1CCC2)Nc1ccc(Oc2ccccc2)cc1` showed an MIC (Staphylococcus aureus [12]) of 4 µM.

For `CCCCCCCCCCCC[N+](C)(C)CCCCCCCCCCCC`, the MIC (Enterococcus faecalis [3]) was 1 µM, the MIC (Staphylococcus aureus [4]) was 1 µM and the MIC (Pseudomonas aeruginosa [5]; [23]) was 32 µM. The MIC (Escherichia coli [6]; [24]) was 8 µM.

`CCCCCCCCCC[n+]1cccc(CN(Cc2ccc[n+](CCCCCCCCCC)c2)Cc2ccc[n+](CCCCCCCCCC)c2)c1` gave an MIC (Pseudomonas aeruginosa [13]) of 2 µM, an MIC (Staphylococcus aureus [14]) of 0.5 µM and an MIC (Escherichia coli [15]) of 1 µM. It also gave an MIC (Enterococcus faecalis [16]) of 1 µM and an MIC (Staphylococcus aureus [9]) of 0.5 µM.

`CCCCCC[N+](C)(C)CCOc1ccc(OCC[N+](C)(C)CCCCCC)cc1.[Br-].[Br-]` was tested, and the MIC (Staphylococcus aureus [14]) was 32 µg/mL, the MIC [17] was 64 µg/mL and the MIC (Enterococcus faecalis [16]) was 128 µg/mL.

Work on `CCCCCCCCCCCCOC(=O)C[N+](C)(C)CCC[N+](C)(C)CC(=O)OCCCCCCCCCCCC.[Br-].[Br-]` yielded an IC50 (Staphylococcus aureus [4]) of 20 µM, an MIC (Pseudomonas aeruginosa [5]) of 300 µM and an MIC (Escherichia coli [6]) of 20 µM.

Compound `CCCC1OCc2c(CO)c(C[N+](C)(C/C=C/C#CC(C)(C)C)Cc3cccc4ccccc34)nc(C)c2O1.[Br-]` (stereo unspecified) has an MIC (Staphylococcus aureus [18]) of 4 µg/mL.

With `CCCCCCCC[N+](C)(C)CCOc1ccc(OCC[N+](C)(C)CCCCCCCC)cc1.[Br-].[Br-]` the MIC (Staphylococcus aureus [14]) was 0.5 µg/mL, the MIC [17] was 1 µg/mL and the MIC (Enterococcus faecalis [16]) was 4 µg/mL.

Work on `CCCCCCCCCC[N+](C)(C)Cc1ccc(C[N+](C)(C)CCCCCCCCCC)cc1` yielded an MIC (Staphylococcus aureus [12]) of 6.1 µM.

In the case of `CCCCCCCCCCCC[N+](C)(C)c1ccc(C(c2ccc(N(C)C)cc2)c2ccc(N(C)C)cc2)cc1`, the MIC (Staphylococcus aureus [14]) is reported as 0.25 µM.

With `CCCCCCCCCCCCCCCCCC[N+](CC)(CC)c1ccc(C(c2ccc([N+](C)(CC)CC)cc2)c2ccc([N+](C)(CC)CC)cc2)cc1` the MIC (Pseudomonas aeruginosa [13]) was 8 µM, the MIC (Staphylococcus aureus [14]) was 1 µM and the MIC (Escherichia coli [15]) was 1 µM. The MIC (Enterococcus faecalis [16]) was 1 µM and the MIC (Staphylococcus aureus [9]) was 0.5 µM.

`CCCCCCCCS(=O)(=O)Nc1ccc(-c2ccc(Cl)cc2)cc1C(=O)C(=O)NCCC[N+](C)(C)C.[I-]` was tested, and the MIC (Staphylococcus aureus [19]) was 8 µg/mL.

`CCCCCCCCCCCCCCCCn1cc[n+](Cc2cccc(F)c2)c1C` was tested, and the MIC (Enterococcus faecium) was 1.17 µM, the MIC (Staphylococcus aureus [20]) was 1.17 µM and the MIC [21] was 1.17 µM.

`CCCCCCCCS(=O)(=O)Nc1ccc(-c2ccc(-c3ccccc3)cc2)cc1C(=O)C(=O)NCCC[N+](C)(C)C` gave an MIC (Staphylococcus aureus [12]) of 4 µM.

`CCCCCCCCC[n+]1ccc(Oc2ccc(-c3ccc(Oc4cc[n+](CCCCCCCCC)cc4)cc3)cc2)cc1.[Br-].[Br-]` gave an MIC (Klebsiella pneumoniae) of under 0.25 µg/mL, an MIC (Pseudomonas aeruginosa [22]) of under 0.25 µg/mL and an MIC (Escherichia coli [15]) of under 0.25 µg/mL. It also gave an MIC (Acinetobacter baumannii) of under 0.25 µg/mL and an MIC (Staphylococcus aureus [9]) of under 0.25 µg/mL.

Reference: ChEMBL document CHEMBL5331054, “Antibacterial quaternary ammonium agents: Chemical diversity and biological mechanism” (Eur J Med Chem, 2022)
